Here are results for 3 compounds from article PMC9865890, “N-Derivatives of (Z)-Methyl 3-(4-Oxo-2-thioxothiazolidin-5-ylidene)methyl)-1H-indole-2-carboxylates as Antimicrobial Agents—In Silico and In Vitro Evaluation” (Pharmaceuticals, 2023).

Holding throughout (assay type): cell-based
Assay [1] relates to Bacillus cereus (clinical isolate). As to the kind of experiment: Antibacterial microdilution (MIC/MBC). As to conditions: Bacillus cereus, B.c. (B. cereus); for MIC: read-out: MIC. How it is done:
(§1) The synthesized compounds (Table 1) were evaluated for their antibacterial activity against a panel of eight species using a microdilution method with ampicillin and streptomycin as reference drugs. […] The order of activity can be presented as: 8 > 11 > 2 > 1 > 12 > 3 > 17 > 7 > 5 > 13 > 14 > 16 > 9 > 4 = 6 > 15 > 10. […] Cloacae. […] The most sensitive bacteria appeared to be En. cloacae, while E. coli was the most resistant one, followed by M. flavus.
(§2) The following Gram-negative bacteria: Escherichia coli (ATCC 35210), Enterobacter cloacae (clinical isolate), Salmonella typhimurium (ATCC 13311), as well as Gram-positive bacteria: Listeria monocytogenes (NCTC 7973), Bacillus cereus (clinical isolate), and Staphylococcus aureus (ATCC 6538) were used. The organisms were obtained from the Mycological Laboratory, Department of Plant Physiology, Institute for Biological Research “Siniša Stankovic”, Belgrade, Serbia. The minimum inhibitory (MIC) and minimum bactericidal (MBC) concentrations were determined by the modified microdilution method, as previously reported.

Assay [2] has as its system Enterobacter cloacae (clinical isolate). As to the kind of experiment: Antibacterial microdilution (MIC/MBC). The settings on record: Enterobacter cloacae, En.cl (En. cloacae); for MIC: read-out: MIC. As for the experimental part: as §1, §2
The subject of assay [3] is Escherichia coli (ATCC 35210). The experiment in a line: Antibacterial microdilution (MIC/MBC). The settings on record: Escherichia coli, ATCC35210, E. coli; for MIC: read-out: MIC. How it is done:
as §1, §2
(In general: Dilution methods test growth across graded concentrations, often in twofold steps.)

Assay [4] has as its system Listeria monocytogenes (NCTC 7973). The experiment in a line: Antibacterial microdilution (MIC/MBC). The settings on record: Listeria monocytogenes, NCTC7973, L.m. (L. monocytogenes); for MIC: read-out: MIC. How it is done: as §1, §2
Another assay has as its system M. flavus. As to the kind of experiment: Antibacterial microdilution (MIC/MBC). As to conditions: Micrococcus flavus; M.f. (M. flavus). As for the experimental part:
as §1, §2

A further assay has as its system P. aeruginosa. As to the kind of experiment: Antibacterial microdilution (MIC/MBC). As to conditions: Pseudomonas aeruginosa, P.a. (P. aeruginosa); for MIC: read-out: MIC. As for the experimental part: as §1, §2
Assay [5] deals with Salmonella typhimurium (ATCC 13311). As to the kind of experiment: Antibacterial microdilution (MIC/MBC). As to conditions: S.t. (S. typhimurium). How it is done:
as §1, §2

Assay [6] deals with Staphylococcus aureus (ATCC 6538). The experiment in a line: Antibacterial microdilution (MIC/MBC). The settings on record: S.a. (S. aureus). As for the experimental part:
as §1, §2

The next assay relates to A. ochraceus. As to the kind of experiment: Antifungal bioassay (MIC/MFC). The settings on record: Aspergillus ochraceus, A.o. (A. ochraceus); for MIC: read-out: MIC. How it is done:
(§3) For the antifungal bioassays, six fungi were used: […] The organisms were obtained from the Mycological Laboratory, Department of Plant Physiology, Institute for Biological Research “Siniša Stankovic”, Belgrade, Serbia. All experiments were performed in duplicate.

Assay [7] concerns Aspergillus fumigatus (ATCC 1022). The experiment in a line: Antifungal bioassay (MIC/MFC). The settings on record: ATCC1022, A.f. (A. fumigatus). How it is done:
as §3

Assay [8] relates to Aspergillus niger (ATCC 6275). As to the kind of experiment: Antifungal bioassay (MIC/MFC). As to conditions: ATCC6275, A.n. (A. niger). How it is done: as §3
The test system of assay [9] is Aspergillus versicolor (ATCC 11730). As to the kind of experiment: Antifungal bioassay (MIC/MFC). The settings on record: ATCC11730, A.v. (A. versicolor). As for the experimental part: as §3
The test system of another assay is P. ochrochloron. The experiment in a line: Antifungal bioassay (MIC/MFC). The settings on record: for MIC: P.o. (P. ochrochloron; text: P. ochramensis); for MFC: P.o. (P. ochrochloron). How it is done: as §3
Assay [10] has as its system Penicillium funiculosum (ATCC 36839). The experiment in a line: Antifungal bioassay (MIC/MFC). As to conditions: Talaromyces funiculosus, ATCC36839; P.f. (P. funiculosum). As for the experimental part:
as §3

Assay [11] relates to Trichoderma viride (IAM 5061). The experiment in a line: Antifungal bioassay (MIC/MFC). The settings on record: T.v. (T. viride). As for the experimental part:
as §3

In assay [12] the test system is Penicillium verrucosum var. cyclopium (food isolate). The experiment in a line: Antifungal bioassay (MIC/MFC). How it is done:
For the antifungal bioassays, six fungi were used: Aspergillus niger (ATCC 6275), Aspergillus fumigatus (ATCC 1022), Aspergillus versicolor (ATCC 11730), Penicillium funiculosum (ATCC 36839), Trichoderma viride (IAM 5061), and Penicillium verrucosum var. cyclopium (food isolate). The organisms were obtained from the Mycological Laboratory, Department of Plant Physiology, Institute for Biological Research “Siniša Stankovic”, Belgrade, Serbia. All experiments were performed in duplicate.

Where [13] appears, read: Salmonella enterica, read-out: MIC.
[14] abbreviates: Staphylococcus aureus, ATCC6538.
Where [15] appears, read: Staphylococcus aureus, ATCC6538, read-out: MIC.
The mark [16] stands for this setting: Penicillium ochrochloron, read-out: MIC.
The mark [17] stands for this setting: Trichoderma viride, IAM5061, read-out: MIC.

Values after ≈ are worked out from the molar mass of the structure shown. Read-outs that look alike come from different tables or passages of the source.

What is called MBC is the lowest tested concentration that kills the bacteria rather than only halting them. For orientation: MIC means the lowest concentration that inhibits growth of the organism. One may read the MFC as the smallest concentration meeting the test's criterion for killing the fungus. A lower MFC goes with greater fungicidal potency.

As to `COC(=O)c1[nH]c2ccccc2c1/C=C1\SC(=S)N(Cc2ccco2)C1=O` [Compound 7, (Z)-methyl 3-((3-(furan-2-ylmethyl)-4-oxo-2-thioxothiazolidin-5-ylidene)methyl)-1H-indole-2-carboxylate], the MBC in [1] is 60 ± 6 µg/mL (≈ 151 µM); in [2], 30 ± 10 µg/mL (≈ 75.3 µM); in [3] it was 60 ± 6 µg/mL (≈ 151 µM); in assay [4], 60 ± 6 µg/mL (≈ 151 µM); against M. flavus, 60 ± 6 µg/mL (≈ 151 µM); against P. aeruginosa, 60 ± 6 µg/mL (≈ 151 µM). Also, the MBC in [5] (Salmonella enterica) and in assay [6] (setting [14]) was 30 ± 10 µg/mL (≈ 75.3 µM) each time. The MIC amounted to 30 ± 10 µg/mL (≈ 75.3 µM) in assay [1]; 15 ± 9 µg/mL (≈ 37.6 µM) in assay [2]; 30 ± 10 µg/mL (≈ 75.3 µM) in assay [3]; 30 ± 10 µg/mL (≈ 75.3 µM) in assay [4]; 45 ± 3 µg/mL (≈ 113 µM) in the assay on M. flavus; 30 ± 10 µg/mL (≈ 75.3 µM) in the assay with P. aeruginosa. In addition, the MIC in assay [5] was found to be 15 ± 9 µg/mL (≈ 37.6 µM); in [5] (setting [13]) it was 15 µg/mL (≈ 37.6 µM); in assay [6], 15 ± 9 µg/mL (≈ 37.6 µM); in assay [6] (setting [15]), 15 µg/mL (≈ 37.6 µM); in the assay on A. ochraceus it was 8 ± 0.6 µg/mL (≈ 20.1 µM); in assay [7] it was 60 ± 6 µg/mL (≈ 151 µM). Further, the MIC in assay [8] was 8 ± 0.6 µg/mL (≈ 20.1 µM); in assay [9], 8 ± 0.6 µg/mL (≈ 20.1 µM); against P. ochrochloron, 8 ± 0.6 µg/mL (≈ 20.1 µM); with P. ochrochloron (setting [16]) it was 8 µg/mL (≈ 20.1 µM); in assay [10], 15 ± 3 µg/mL (≈ 37.6 µM); in assay [11], 4 ± 1 µg/mL (≈ 10 µM). The MIC in assay [11] (setting [17]) is 4 µg/mL (≈ 10 µM); in assay [12], 15 ± 3 µg/mL (≈ 37.6 µM). The minimal fungicidal concentration (MFC) was 15 ± 3 µg/mL (≈ 37.6 µM) against A. ochraceus; 120 ± 40 µg/mL (≈ 301 µM) in [7]; 15 ± 3 µg/mL (≈ 37.6 µM) in assay [8]; 15 ± 3 µg/mL (≈ 37.6 µM) in assay [9]; 15 ± 3 µg/mL (≈ 37.6 µM) with P. ochrochloron (Penicillium ochrochloron); 30 ± 10 µg/mL (≈ 75.3 µM) in assay [10]. In addition, the minimal fungicidal concentration (MFC) came to 8 ± 0.6 µg/mL (≈ 20.1 µM) in assay [11] (Trichoderma viride, IAM5061) and 30 ± 10 µg/mL (≈ 75.3 µM) in assay [12].

On to `CC(=O)N1CCN(c2ccc(OCC3COC(Cn4ccnc4)(c4ccc(Cl)cc4Cl)O3)cc2)CC1` (centres unmarked) [Ketoconazole, reference compound], for which the minimal fungicidal concentration (MFC) with A. ochraceus was determined as 500 ± 6 µg/mL (≈ 941 µM); in assay [7], 500 ± 1 µg/mL (≈ 941 µM); in assay [8], 500 ± 4 µg/mL (≈ 941 µM); in assay [9], 500 ± 2 µg/mL (≈ 941 µM); with P. ochrochloron (Penicillium ochrochloron), 3500 ± 30 µg/mL (≈ 6590 µM); in assay [10], 500 ± 3 µg/mL (≈ 941 µM). The minimum fungicidal concentration (MFC) came out at 1500 ± 90 µg/mL (≈ 2820 µM) in assay [11] (Trichoderma viride, IAM5061) and 300 ± 10 µg/mL (≈ 565 µM) in assay [12]. For the same compound, the MIC in the assay on A. ochraceus was found to be 250 ± 50 µg/mL (≈ 470 µM); in [7], 200 ± 10 µg/mL (≈ 376 µM); in assay [8], 200 ± 10 µg/mL (≈ 376 µM); in assay [9], 200 ± 10 µg/mL (≈ 376 µM); in the assay on P. ochrochloron (setting [16]), 2500 ± 300 µg/mL (≈ 4700 µM); in assay [10] it was 200 ± 10 µg/mL (≈ 376 µM). Also, the figures for the MIC in assay [11] (setting [17]) and in [12] were 1000 ± 100 µg/mL (≈ 1880 µM) and 200 ± 10 µg/mL (≈ 376 µM), respectively.

Turning to `CC1(C)S[C@@H]2[C@H](NC(=O)[C@H](N)c3ccccc3)C(=O)N2[C@H]1C(=O)O` [Ampicillin, reference compound], the MBC is 25 µg/mL (≈ 71.5 µM) in assay [1]; 500 ± 100 µg/mL (≈ 1430 µM) in [2]; 200 µg/mL (≈ 572 µM) in assay [3]; 300 ± 30 µg/mL (≈ 859 µM) in assay [4]; 500 ± 100 µg/mL (≈ 1430 µM) in the assay with M. flavus; 500 ± 100 µg/mL (≈ 1430 µM) in the assay on P. aeruginosa. The minimum bactericidal concentration (MBC) in assay [5] (Salmonella enterica) worked out at 200 ± 9 µg/mL (≈ 572 µM); in assay [6] (setting [14]) it was 150 ± 50 µg/mL (≈ 429 µM). Also, the MIC in assay [1] worked out at 6 ± 3 µg/mL (≈ 17.2 µM); in assay [2], 250 ± 90 µg/mL (≈ 715 µM); in [3] it was 100 ± 50 µg/mL (≈ 286 µM); in assay [4], 150 ± 30 µg/mL (≈ 429 µM); in the assay on M. flavus, 250 ± 90 µg/mL (≈ 715 µM); with P. aeruginosa it was 300 ± 30 µg/mL (≈ 859 µM). For the same compound, the MIC in assay [5] (setting [13]) was 150 ± 30 µg/mL (≈ 429 µM); in assay [6] (setting [15]), 100 ± 50 µg/mL (≈ 286 µM).
